Reference: US20030158254A1, “Engineering absorption of therapeutic compounds via colonic transporters” (XenoPort, Inc., priority 2002, published 2003)

Experiments:
[1] = Uptake into plasma of Compound V following oral and intracolonic administration; type: in vivo, rat; conditions: FIG. 4
Experimental: Rats were obtained commercially and were pre-cannulated in the both the ascending colon and the jugular vein. Animals were conscious at the time of the experiment. All animals were fasted overnight and until 4 hours post-dosing. Prodrugs were administered as a solution (in water or polyethylene glycol 400) directly into the colon via the cannula at a dose equivalent to 25 mg of gabapentin per kg. Blood samples (0.5 mL) were obtained from the jugular cannula at intervals over 8 hours and were quenched immediately by addition of acetonitrile/methanol to prevent further conversion of the prodrug. Blood samples were analyzed as described in the attached sample analysis summary.
FIG. 4 compares uptake into the plasma of Compound V following oral and intracolonic administration. […] The levels from oral and colonic administration cross at about 7 hr.

Caco-2 cells = test: Caco-2 transport with and without PEPT1/PEPT2 inhibitor Lys(ε-Dansyl)-Leu; type: cell-based, human; conditions: apical to basolateral, 600 μM Lys(ε-Dansyl)-Leu, FIG. 2
Excerpt: Caco-2 cells are derived from the human colon and naturally express a number of colon-expressed transporters. The cells can be used to screen agents or conjugates for capacity to be transported by a colon expressed transporter. By screening agents or conjugates in the presence and absence of the specific PEPT1 and PEPT2 inhibitor Lys(ε-Dansyl)-Leu, one can determine whether PEPT1 and/or PEPT2 is a transporter mediating transport of the agent or conjugate. The role of PEPT1 and/or PEPT2 is shown by a decrease in transport in the presence of Lys(ε-Dansyl)-Leu.
1. Caco-2 cells are plated in either a 12 or 24 well Transwell plate and allowed to differentiate for 19-30 days prior to screening. Day 21 cells are optimal.
2. Dilutions of test compounds with or without Lys(ε-Dansyl)-Leu are prepared in assay buffer. pH 6.0
a. Concentrations of compounds are generally 1 mM with or without 600 μM Lys(Dansyl)-leucine.
b. 20 μM Propidium Iodide added as marker.
3. Spent media is aspirated from apical and basolateral chambers. To the apical chambers, 500 μL of test compound with or without Lys(ε-Dansyl)-Leu is added (125 μL for 24 well Transwell plates).
4. In the basolateral chambers, HBSS buffer pH 7.4 is added (1.5 mL for 12 well format, 875 μL for 24 well format).
5. At each timepoint, 50 μL is sampled from basolateral chambers and transferred to a LC/MS plate (Nunc, PP round bottom).
6. […]

hSMVT = biological target: T1, hSMVT (Homo sapiens, UniProt Q9Y289); test: Radiolabeled competition assay in SMVT-expressing CHO cells; type: cell-based; conditions: radiolabeled competition assay in SMVT-expressing CHO cells; read-out: IC50
T1 sequence (Q9Y289 1-635): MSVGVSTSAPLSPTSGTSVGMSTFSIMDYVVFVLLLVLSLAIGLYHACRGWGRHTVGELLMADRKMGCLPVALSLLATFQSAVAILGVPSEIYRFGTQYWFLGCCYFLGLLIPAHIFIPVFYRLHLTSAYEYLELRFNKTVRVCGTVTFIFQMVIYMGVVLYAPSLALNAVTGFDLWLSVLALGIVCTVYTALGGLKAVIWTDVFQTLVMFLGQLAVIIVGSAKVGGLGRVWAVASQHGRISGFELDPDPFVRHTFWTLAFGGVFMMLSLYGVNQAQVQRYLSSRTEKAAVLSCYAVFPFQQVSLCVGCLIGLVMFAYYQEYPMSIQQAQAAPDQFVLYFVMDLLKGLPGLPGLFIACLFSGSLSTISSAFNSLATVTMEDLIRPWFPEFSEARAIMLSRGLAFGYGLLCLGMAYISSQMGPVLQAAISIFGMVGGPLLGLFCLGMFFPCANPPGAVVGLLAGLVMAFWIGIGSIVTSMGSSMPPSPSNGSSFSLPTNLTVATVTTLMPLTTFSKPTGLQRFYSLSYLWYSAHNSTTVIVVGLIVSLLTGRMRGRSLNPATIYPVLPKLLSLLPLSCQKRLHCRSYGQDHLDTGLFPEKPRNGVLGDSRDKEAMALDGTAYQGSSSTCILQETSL
Excerpt: The complete open reading frame of human ATBO+(SLC6A14) and SMVT (SLC5A6) were amplified from human cDNA prepared from liver or intestine mRNA. […] Amplified PCR products were cloned into a modified version of the mammalian expression vector pcDNA3 (termed pMO) that was engineered to contain the 5′ and 3′ untranslated regions from the Xenopus beta-globin gene. All clones were completely sequenced and tested for function by transient transfection in HEK293 cells.
For cell uptake studies, stable CHOK1 clones were seeded into polylysine coated 96-well microtitre plates and grown for 2-3 days. Cells were incubated with experimental solutions (combinations of radiolabeled and unlabeled compounds) for 30 minutes at room temperature, washed four times, and lysed in scintillation solution. Accumulation of radiolabeled molecules was measured in a microtitre scintillation plate reader (Perkin Elmer). Inhibition constants (IC50s) were calculated using curve-fitting software (Prism).

## CC(C)(N)C(=O)NCC1(CC(=O)O)CCCCC1 [Compound V, a-aminoisobutyryl gabapentin]
[1]; intracolonic versus oral
  Plasma peak after colonic dosing compared with oral: lower peak at a later time
[1]; oral versus intracolonic
  Time at which plasma levels from oral and colonic administration cross: about 7 hr
Caco-2 cells
  Transport across Caco-2 cells in presence and absence of Lys(ε-Dansyl)-Leu: inhibited by Lys(ε-Dansyl)-Leu
hSMVT
  IC50: 320 µM
